Laboratory results published in PubChem BioAssay (NCI).
Values joined by “and” are separate entries in the source; they are usually repeats but may differ in a detail not shown here. Identical values can stand only once.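 Following 48 hours of exposure in 96-well plates, responses at five concentrations were used to interpolate endpoints linearly. The concentration for 50% growth inhibition is given as GI50. TGI denotes the concentration required for complete inhibition of growth.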

Columns and labels:
Assay in all cases: NCI tumour cell line growth inhibition, 48 h
[1] = system: DU-145 prostate
[2] = system: RPMI-8226 leukemia
[3] = system: OVCAR-8 ovarian
[4] = system: UACC-62 melanoma
[5] = system: SR leukemia
[6] = system: K-562 leukemia
[7] = system: MOLT-4 leukemia
[8] = system: HS 578T breast
[9] = system: BT-549 breast
[10] = system: NCI-H522 lung
[11] = system: HOP-92 NSCLC
[12] = system: HT29 colon
[13] = system: 786-0 renal
[14] = system: RXF 393 renal
[15] = system: HCT-15 colon
[16] = system: NCI-H23 lung
[17] = system: NCI/ADR-RES ovarian
[18] = system: NCI-H226 lung
[19] = system: EKVX NSCLC
[20] = system: UACC-257 melanoma
[21] = system: SN12C renal
[22] = system: KM12 colon
[23] = system: A498 renal
[24] = system: PC-3 prostate
[25] = system: CCRF-CEM leukemia
[26] = system: IGROV1 ovarian
[27] = system: CAKI-1 renal
[28] = system: T-47D breast
[29] = system: SK-MEL-2 melanoma
[30] = system: COLO 205 colon

CO[C@@H](C(=O)N1Cc2[nH]nc(NC(=O)c3ccc(N4CCN(C)CC4)cc3)c2C1)c1ccccc1
GI50 [1]: 2020 nM and 1930 nM
TGI [1]: 17900 nM and > 10000 nM
GI50 [2]: 7040 nM and 5810 nM
TGI [2]: > 52500 nM
GI50 [3]: 2270 nM and 1840 nM
TGI [3]: > 100000 nM
GI50 [4]: 548 nM and 482 nM
TGI [4]: 50500 nM and > 10000 nM
GI50 [5]: 56.9 nM and 39.5 nM
TGI [5]: > 35600 nM
GI50 [6]: 106 nM and 54.7 nM
TGI [6]: > 100000 nM
GI50 [7]: 12600 nM and 2300 nM
TGI [7]: > 81100 nM
GI50 [8]: 1370 nM and 232 nM
TGI [8]: 7920 nM and 859 nM
GI50 [9]: 809 nM and 1390 nM
TGI [9]: 5900 nM and > 10000 nM
GI50 [10]: 469 nM and 163 nM
TGI [10]: 45500 nM and > 10000 nM
GI50 [11]: 153 nM and 63.9 nM
TGI [11]: 731 nM and 1240 nM
GI50 [12]: 713 nM and 658 nM
TGI [12]: 2650 nM and 8970 nM
GI50 [13]: 2550 nM and 2000 nM
TGI [13]: 31400 nM and > 10000 nM
GI50 [14]: 593 nM and 312 nM
TGI [14]: 3720 nM and 2090 nM
GI50 [15]: 18800 nM and > 10000 nM
TGI [15]: > 100000 nM
GI50 [16]: 764 nM and 609 nM
TGI [16]: 23700 nM and > 10000 nM
GI50 [17]: > 100000 nM
TGI [17]: > 100000 nM
GI50 [18]: 360 nM and 80.4 nM
TGI [18]: 49300 nM and > 8910 nM
GI50 [19]: 1730 nM and 1890 nM
TGI [19]: 37600 nM and > 10000 nM
GI50 [20]: 613 nM and 1060 nM
TGI [20]: 18900 nM and > 10000 nM
TGI [21]: > 100000 nM
GI50 [22]: 216 nM and 125 nM
TGI [22]: 7090 nM and > 8180 nM
GI50 [23]: 69.6 nM and 317 nM
TGI [23]: 1320 nM and 3620 nM
GI50 [24]: 1530 nM and 2530 nM
TGI [24]: 40700 nM and > 10000 nM
TGI [25]: > 100000 nM
GI50 [26]: 282 nM and 62.4 nM
TGI [26]: 3010 nM and 2950 nM
GI50 [27]: 19600 nM and > 10000 nM
TGI [27]: > 91400 nM
GI50 [28]: 792 nM and 538 nM
TGI [28]: 69300 nM and > 10000 nM
GI50 [29]: 4330 nM and 6860 nM
TGI [29]: 33100 nM and > 10000 nM
GI50 [30]: 48.3 nM and 39.5 nM
